# The source made the active and inactive calls. The rule behind the calls is not given here.
# Tests used:
# LCLC-103H cell line [1] = experiment: Antitumor activity against human LCLC-103H cells harboring wild type KRAS xenografted in immunodeficient NOD-SCID mouse assessed as tumor volume at 5 to 30 mg/kg, ip administered for 5 times at 5 mg/kg in first week followed by administration at 20 mg/kg 5 times in second week and further administered 30 mg/kg 3 times in third week measured 17 days post treatment initiation and 35 days post tumor transplantation by digital caliper based analysis; type: functional; details: dose 5-30 mg/kg, time 17 day
# [2] = Cytotoxicity against human MRC5 cells assessed as inhibition of cell growth incubated for 72 hrs by MTT assay; type: toxicity, cell-based
# [3] = Clearance in NOD-SCID mouse at 15 mg/kg, ip administered as single dose and measured upto 48 hrs by HPLC/MS analysis; type: ADME, organism-based; details: in vivo
# [4] = Half life in NOD-SCID mouse at 15 mg/kg, ip administered as single dose and measured upto 48 hrs by HPLC/MS analysis; type: ADME, organism-based; details: in vivo
# [5] = tested on: GTPase KRas (Homo sapiens), P01116 [G12C]; experiment: Covalent binding affinity to GDP-bound human KRAS-4B G12C mutant (1 to 169 residues) expressed in Escherichia coli BL21 Rosetta cells at 200 uM measured after 4 hrs by Ellman's assay
# BXPC-3 = experiment: Antiproliferative activity against human BXPC-3 cells harboring wild type KRAS assessed as inhibition of cell growth incubated for 72 hrs by MTT assay; type: functional, cell-based; details: BXPC-3, 72 h
# NCI-H358 = experiment: Antiproliferative activity against human NCI-H358 cells harboring heterozygous KRAS G12C mutant assessed as inhibition of cell growth incubated for 72 hrs by MTT assay; type: functional, cell-based; details: NCI-H358, 72 h
# [6] = Antiproliferative activity against human HCA-7 cells harboring wild type KRAS assessed as inhibition of cell growth incubated for 72 hrs by MTT assay; type: functional, cell-based, HCA7; details: HCA-7, 72 h
# SW480 = experiment: Antiproliferative activity against human SW480 cells harboring homozygous KRAS G12V mutant assessed as inhibition of cell growth incubated for 72 hrs by MTT assay; type: functional, cell-based; details: SW480, 72 h
# NCI-H1792 [7] = experiment: Antiproliferative activity against human NCI-H1792 cells harboring heterozygous KRAS G12C mutant assessed as inhibition of cell growth incubated for 72 hrs by MTT assay; type: functional, cell-based; details: NCI-H1792, 72 h
# [8] = Cytotoxicity against human CCD-986Sk cells assessed as inhibition of cell growth incubated for 72 hrs by MTT assay; type: toxicity, cell-based
# [9] = Toxicity in immunodeficient NOD-SCID mouse xenografted with human NCI-H1792 cells harboring KRAS G12C mutant assessed as body weight at 5 to 30 mg/kg, ip administered for 5 times at 5 mg/kg in first week followed by administration at 20 mg/kg 5 times in second week and further administered 30 mg/kg 3 times in third week measured 17 days post treatment initiation and 35 days post tumor transplantation (reference value: 6.6 g); type: organism-based; details: in vivo, 408 h, dose 5-30 mg/kg, time 17 day
# [10] = Cytotoxicity against HUVEC cells immortalized with TERT assessed as inhibition of cell growth incubated for 72 hrs by MTT assay; type: toxicity, cell-based; details: human
# PANC-1 = experiment: Antiproliferative activity against human PANC-1 cells harboring heterozygous KRAS G12D mutant assessed as inhibition of cell growth incubated for 72 hrs by MTT assay; type: functional, cell-based; details: PANC-1, 72 h
# [11] = Volume of distribution in NOD-SCID mouse at 15 mg/kg, ip administered as single dose and measured upto 48 hrs by HPLC/MS analysis; type: ADME, organism-based; details: in vivo
# [12] = tested on: GTPase KRas (Homo sapiens), P01116 [G12C]; experiment: Binding affinity to Cys118 residue of GDP bound human KRAS-4B G12C mutant (1 to 169 residues) expressed in Escherichia coli BL21 Rosetta cells at 150 to 500 uM measured after 96 hrs by 1H-15N HSQC NMR spectral analysis; details: dose 150-500 µM
# LCLC-103H cell line [13] = experiment: Antiproliferative activity against human LCLC-103H cells harboring wild type KRAS assessed as inhibition of cell growth incubated for 72 hrs by MTT assay; type: functional, cell-based
# SW1573 = experiment: Antiproliferative activity against human SW1573 cells harboring homozygous KRAS G12C mutant assessed as inhibition of cell growth incubated for 72 hrs by MTT assay; type: functional, cell-based; details: SW1573, 72 h
# [14] = Toxicity in immunodeficient NOD-SCID mouse xenografted with human NCI-H1792 cells harboring KRAS G12C mutant assessed as body weight at 5 to 30 mg/kg, ip administered for 5 times at 5 mg/kg in first week followed by administration at 20 mg/kg 5 times in second week and further administered 30 mg/kg 3 times in third week measured 20 days post treatment initiation and 38 days post tumor transplantation (reference value: 6.6 g); type: organism-based; details: in vivo, 480 h, dose 5-30 mg/kg, time 20 day
# MIA PaCa-2 = experiment: Antiproliferative activity against human MIA PaCa-2 cells harboring homozygous KRAS G12C mutant assessed as inhibition of cell growth incubated for 72 hrs by MTT assay; type: functional, cell-based; details: MIA PaCa-2, 72 h
# NCI-H1792 [15] = experiment: Antiproliferative activity against human NCI-H1792 cells harboring KRAS G12C mutant assessed as reduction in cell viability at 2.5 uM incubated for 72 hrs by MTT assay; type: functional, cell-based
# [16] = tested on: GTPase KRas (Homo sapiens), P01116 [G12C]; experiment: Covalent binding affinity to GDP-bound human KRAS-4B G12C mutant (1 to 169 residues) expressed in Escherichia coli BL21 Rosetta cells at 200 uM measured after 1 hr by Ellman's assay
# A549 = experiment: Antiproliferative activity against human A549 cells harboring homozygous KRAS G12S mutant assessed as inhibition of cell growth incubated for 72 hrs by MTT assay; type: functional, cell-based; details: A549, 72 h
# [17] = tested on: GTPase KRas (Homo sapiens), P01116 [G12C]; experiment: Covalent binding affinity to GDP-bound human KRAS-4B G12C mutant (1 to 169 residues) expressed in Escherichia coli BL21 Rosetta cells assessed as reduction in free Cys residues at 200 uM measured after 1 hr by Ellman's assay
# NCI-H1792 [18] = experiment: Antitumor activity against human NCI-H1792 cells harboring KRAS G12C mutant xenografted in immunodeficient NOD-SCID mouse assessed as reduction in tumor growth at 5 to 30 mg/kg, ip administered for 5 times at 5 mg/kg in first week followed by administration at 20 mg/kg 5 times in second week and further administered 30 mg/kg 3 times in third week measured 17 days post treatment initiation and 35 days post tumor transplantation by digital caliper based analysis relative to control; type: functional; design: scale not given: the % may be the effect or the level left; details: dose 5-30 mg/kg, time 17 day
# [19] = AUCt in NOD-SCID mouse at 15 mg/kg, ip administered as single dose and measured upto 48 hrs by HPLC/MS analysis; type: ADME, organism-based; design: dose 15 mg/kg, time < 48 hrs, route ip; details: in vivo
# [20] = Tmax in NOD-SCID mouse at 15 mg/kg, ip administered as single dose and measured upto 48 hrs by HPLC/MS analysis; type: ADME, organism-based; details: in vivo
# [21] = tested on: GTPase KRas (Homo sapiens), P01116 [G12C]; experiment: Binding affinity to Cys51 residue of GDP bound human KRAS-4B G12C mutant (1 to 169 residues) expressed in Escherichia coli BL21 Rosetta cells at 150 to 500 uM measured after 96 hrs by 1H-15N HSQC NMR spectral analysis; details: dose 150-500 µM
# [22] = tested on: GTPase KRas (Homo sapiens), P01116 [G12C]; experiment: Covalent binding affinity to GDP-bound human KRAS-4B G12C mutant (1 to 169 residues) expressed in Escherichia coli BL21 Rosetta cells assessed as labelling on Cys12 residue by intact LCMS analysis
# [23] = tested on: GTPase KRas (Homo sapiens), P01116 [G12C]; experiment: Binding affinity to Cys12 residue of GDP bound human KRAS-4B G12C mutant (1 to 169 residues) expressed in Escherichia coli BL21 Rosetta cells at 150 to 500 uM measured after 96 hrs by 1H-15N HSQC NMR spectral analysis; details: dose 150-500 µM
# [24] = Toxicity in immunodeficient NOD-SCID mouse xenografted with human LCLC-103H cells harboring wild type KRAS assessed as body weight at 5 to 30 mg/kg, ip administered for 5 times at 5 mg/kg in first week followed by administration at 20 mg/kg 5 times in second week and further administered 30 mg/kg 3 times in third week measured 17 days post treatment initiation and 35 days post tumor transplantation (reference value: 2.6 g); type: organism-based; details: in vivo, 408 h, dose 5-30 mg/kg, time 17 day
# NCI-H1792 [25] = experiment: Antiproliferative activity against human NCI-H1792 cells harboring KRAS G12C mutant assessed as cell viability at 25 uM incubated for 72 hrs by MTT assay relative to control; type: functional; details: read-out: Activity
# [26] = Cmax in NOD-SCID mouse at 15 mg/kg, ip administered as single dose and measured upto 48 hrs by HPLC/MS analysis; type: ADME, organism-based; design: time < 48 hrs, dose 15 mg/kg, route ip; details: in vivo
# [27] = tested on: GTPase KRas (Homo sapiens), P01116 [G12C]; experiment: Binding affinity to Cys80 residue of GDP bound human KRAS-4B G12C mutant (1 to 169 residues) expressed in Escherichia coli BL21 Rosetta cells at 150 to 500 uM measured after 96 hrs by 1H-15N HSQC NMR spectral analysis; details: dose 150-500 µM
# Homo sapiens [28] = species on record: Homo sapiens; experiment: Inhibition of GDP-bound human KRAS 149stop G12C mutant expressed in Escherichia coli BL21 Rosetta cells assessed as inhibition of EDTA mediated nucleotide exchange at 250 uM measured after 24 hrs by fluorescence based analysis
# Homo sapiens [29] = species on record: Homo sapiens; experiment: Inhibition of GDP-bound human KRAS 149stop G12C mutant expressed in Escherichia coli BL21 Rosetta cells assessed as inhibition of SOS1 mediated nucleotide exchange at 250 uM measured after 24 hrs by fluorescence based analysis
SMILES,Activity (LCLC-103H cell line [1]),CL/F [3],half-life [4],IC50 (NCI-H358),IC50 [6],IC50 (NCI-H1792 [7]),IC50 at 72 h [8],Activity [9],IC50 at 72 h [10],Vd [11],IC50 (MIA PaCa-2),Activity (NCI-H1792 [15]),Activity (NCI-H1792 [18]),AUC(0-t) at 48 h [19],Tmax [20],Activity [24],viability at 25 µM (NCI-H1792 [25]),Cmax [26],other results
O=C1Nc2cc(Cl)cc(Cl)c2C1=O,13.3 mm3,31.6 mL/min,4.4 h,16.9 µM,9.8 µM,11 µM,42.7 µM,6.9 g,24.4 µM,12096 mL,13.7 µM,Active,35.8%,169 ng·h/mL,0.25 h,2.8 g,< 50%,337 ng/mL,IC50 at 72 h [2]: 47.9 µM; Activity [5]: 50%; IC50 (BXPC-3): 13.1 µM; IC50 (SW480): 14.8 µM; IC50 (PANC-1): 38 µM; Activity [12]: inactive; IC50 (LCLC-103H cell line [13]): 30 µM; IC50 (SW1573): 23.6 µM; Activity [14]: 9.1 g; Activity [16]: Active; IC50 (A549): 44.4 µM; Activity [17]: Active; Activity [21]: inactive; Activity [22]: Active; Activity [23]: Active; Activity [27]: inactive
C=CC(=O)N1CCN(c2ncnc3c(F)c(-c4c(O)cccc4F)c(Cl)cc23)CC1,7.9 mm3,1.37 mL/min,2.9 h,0.3 µM,23.4 µM,10.9 µM,52.2 µM,3.7 g,0.7 µM,363 mL,0.5 µM,Active,17.9%,3740 ng·h/mL,0.25 h,0.8 g,< 50%,5850 ng/mL,inhibition (Homo sapiens [28]): Active; inhibition (Homo sapiens [29]): Active
